Source: PubChem BioAssay AID1963829 (Molecular Pharmacology Branch, DTP, NCI, 2024)

Test system: 935938-334-R-J1-PDC complex spheroid viability
Assay: Anticancer human tumor 935938-334-R-J1-PDC patient-derived small intestine adenocarcinoma cell line growth inhibition [POLQ]
Details: for IC50: curve of first compound; for viability, T/C: stronger effect = lower value
Summary of the method: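 Complex spheroid viability model combining PDC tumour cells with endothelial (HUVEC) and MSC stromal cells. Novobiocin, ART-558 or RP6685 were tested singly and in combination with standard and investigational anticancer drugs. Each was titrated in half-log steps from near clinical Cmax, or from 10 microM where Cmax was unknown.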

[1] = second compound 0.0316 µM, first compound 0.00316 µM
[2] = second compound 0.0316 µM, first compound 0.01 µM
[3] = second compound 0.0316 µM, first compound 0.0316 µM
[4] = second compound 0.0316 µM, first compound 0.1 µM
[5] = second compound 0.0316 µM, first compound 0.316 µM
[6] = second compound 0.0316 µM, first compound 1 µM
[7] = second compound 0.1 µM, first compound 0.00316 µM
[8] = second compound 0.1 µM, first compound 0.01 µM
[9] = second compound 0.1 µM, first compound 0.0316 µM
[10] = second compound 0.1 µM, first compound 0.1 µM
[11] = second compound 0.1 µM, first compound 0.316 µM
[12] = second compound 0.1 µM, first compound 1 µM
[13] = second compound 0.316 µM, first compound 0.00316 µM
[14] = second compound 0.316 µM, first compound 0.01 µM
[15] = second compound 0.316 µM, first compound 0.0316 µM
[16] = second compound 0.316 µM, first compound 0.1 µM
[17] = second compound 0.316 µM, first compound 0.316 µM
[18] = second compound 0.316 µM, first compound 1 µM
[19] = second compound 1 µM, first compound 0.00316 µM
[20] = second compound 1 µM, first compound 0.01 µM
[21] = second compound 1 µM, first compound 0.0316 µM
[22] = second compound 1 µM, first compound 0.1 µM
[23] = second compound 1 µM, first compound 0.316 µM
[24] = second compound 1 µM, first compound 1 µM
[25] = second compound 3.16 µM, first compound 0.00316 µM
[26] = second compound 3.16 µM, first compound 0.01 µM
[27] = second compound 3.16 µM, first compound 0.0316 µM
[28] = second compound 3.16 µM, first compound 0.1 µM
[29] = second compound 3.16 µM, first compound 0.316 µM
[30] = second compound 3.16 µM, first compound 1 µM
[31] = second compound 10 µM, first compound 0.00316 µM
[32] = second compound 10 µM, first compound 0.01 µM
[33] = second compound 10 µM, first compound 0.0316 µM
[34] = second compound 10 µM, first compound 0.1 µM
[35] = second compound 10 µM, first compound 0.316 µM
[36] = second compound 10 µM, first compound 1 µM
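Note: spheroids exposed to drugs for seven days before viability read.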
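Throughout, for viability, T/C: 100% = DMSO vehicle control wells.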

CCc1c2c(nc3ccc(O)cc13)-c1cc3c(c(=O)n1C2)COC(=O)[C@]3(O)CC + Nc1ccc(C#CCN(C(=O)Cc2ncc(C(F)(F)F)cc2C(F)(F)F)c2ccc(F)cc2)nn1
IC50 (second compound 0.0316 µM): 0.0202 µM | IC50 (second compound 0.1 µM): 0.0171 µM | IC50 (second compound 0.316 µM): 0.0183 µM | IC50 (second compound 1 µM): 0.0223 µM | IC50 (second compound 3.16 µM): 0.0151 µM | IC50 (second compound 10 µM): 0.0221 µM | viability, T/C [1]: 83.8% | viability, T/C [2]: 61.7% | viability, T/C [3]: 44.2% | viability, T/C [4]: 28.6% | viability, T/C [5]: 31.6% | viability, T/C [6]: 29.2% | viability, T/C [7]: 93.6% | viability, T/C [8]: 64.3% | viability, T/C [9]: 33.8% | viability, T/C [10]: 29.6% | viability, T/C [11]: 34.7% | viability, T/C [12]: 32% | viability, T/C [13]: 108% | viability, T/C [14]: 65.8% | viability, T/C [15]: 35.1% | viability, T/C [16]: 36.2% | viability, T/C [17]: 30.6% | viability, T/C [18]: 28.9% | viability, T/C [19]: 109% | viability, T/C [20]: 81.8% | viability, T/C [21]: 36.1% | viability, T/C [22]: 32.6% | viability, T/C [23]: 34.4% | viability, T/C [24]: 30.1% | viability, T/C [25]: 93.2% | viability, T/C [26]: 51.8% | viability, T/C [27]: 43.9% | viability, T/C [28]: 40.4% | viability, T/C [29]: 30.8% | viability, T/C [30]: 30.6% | viability, T/C [31]: 88.8% | viability, T/C [32]: 67.9% | viability, T/C [33]: 41% | viability, T/C [34]: 37.3% | viability, T/C [35]: 31% | viability, T/C [36]: 32.2%

C=CCn1c(=O)c2cnc(Nc3ccc(N4CCN(C)CC4)cc3)nc2n1-c1cccc(C(C)(C)O)n1 + COC1C(OC(N)=O)C(O)C(Oc2ccc3c(O)c(NC(=O)c4ccc(O)c(CC=C(C)C)c4)c(=O)oc3c2C)OC1(C)C
IC50 (second compound 0.0316 µM): 0.651 µM | IC50 (second compound 0.1 µM): 0.593 µM | IC50 (second compound 0.316 µM): 0.729 µM | IC50 (second compound 1 µM): 0.585 µM | IC50 (second compound 3.16 µM): 0.617 µM | IC50 (second compound 10 µM): 0.392 µM | viability, T/C [1]: 97.9% | viability, T/C [2]: 135% | viability, T/C [3]: 82.4% | viability, T/C [4]: 135% | viability, T/C [5]: 84.5% | viability, T/C [6]: 29.5% | viability, T/C [7]: 136% | viability, T/C [8]: 111% | viability, T/C [9]: 88.8% | viability, T/C [10]: 134% | viability, T/C [11]: 71.4% | viability, T/C [12]: 32.1% | viability, T/C [13]: 126% | viability, T/C [14]: 96.7% | viability, T/C [15]: 80.4% | viability, T/C [16]: 128% | viability, T/C [17]: 78.1% | viability, T/C [18]: 39.4% | viability, T/C [19]: 93.1% | viability, T/C [20]: 112% | viability, T/C [21]: 123% | viability, T/C [22]: 86.3% | viability, T/C [23]: 74.8% | viability, T/C [24]: 30.4% | viability, T/C [25]: 130% | viability, T/C [26]: 96.8% | viability, T/C [27]: 100% | viability, T/C [28]: 112% | viability, T/C [29]: 82.5% | viability, T/C [30]: 26.6% | viability, T/C [31]: 90.5% | viability, T/C [32]: 115% | viability, T/C [33]: 120% | viability, T/C [34]: 86.7% | viability, T/C [35]: 57.9% | viability, T/C [36]: 24.5%

CC(=O)O[C@H]1C(=O)[C@@]2(C)[C@H]([C@H](OC(=O)c3ccccc3)[C@]3(O)C[C@H](OC(=O)[C@H](O)[C@@H](NC(=O)c4ccccc4)c4ccccc4)C(C)=C1C3(C)C)[C@]1(OC(C)=O)CO[C@@H]1C[C@@H]2O + Nc1ccc(C#CCN(C(=O)Cc2ncc(C(F)(F)F)cc2C(F)(F)F)c2ccc(F)cc2)nn1
IC50 (second compound 0.0316 µM): < 0.00949 µM | IC50 (second compound 0.1 µM): < 0.00949 µM | IC50 (second compound 0.316 µM): < 0.00949 µM | IC50 (second compound 1 µM): < 0.00949 µM | IC50 (second compound 3.16 µM): < 0.00949 µM | IC50 (second compound 10 µM): < 0.00949 µM | viability, T/C (second compound 0.0316 µM, first compound 0.00949 µM): 44.6% | viability, T/C (second compound 0.0316 µM, first compound 0.03 µM): 17.6% | viability, T/C (second compound 0.0316 µM, first compound 0.0949 µM): 13.5% | viability, T/C (second compound 0.0316 µM, first compound 0.3 µM): 18.1% | viability, T/C (second compound 0.0316 µM, first compound 0.949 µM): 16.1% | viability, T/C (second compound 0.0316 µM, first compound 3 µM): 16.3% | viability, T/C (second compound 0.1 µM, first compound 0.00949 µM): 34% | viability, T/C (second compound 0.1 µM, first compound 0.03 µM): 18% | viability, T/C (second compound 0.1 µM, first compound 0.0949 µM): 17.1% | viability, T/C (second compound 0.1 µM, first compound 0.3 µM): 17.1% | viability, T/C (second compound 0.1 µM, first compound 0.949 µM): 17.8% | viability, T/C (second compound 0.1 µM, first compound 3 µM): 21.7% | viability, T/C (second compound 0.316 µM, first compound 0.00949 µM): 43% | viability, T/C (second compound 0.316 µM, first compound 0.03 µM): 18.5% | viability, T/C (second compound 0.316 µM, first compound 0.0949 µM): 14.1% | viability, T/C (second compound 0.316 µM, first compound 0.3 µM): 11.7% | viability, T/C (second compound 0.316 µM, first compound 0.949 µM): 15.3% | viability, T/C (second compound 0.316 µM, first compound 3 µM): 15.9% | viability, T/C (second compound 1 µM, first compound 0.00949 µM): 30% | viability, T/C (second compound 1 µM, first compound 0.03 µM): 21.3% | viability, T/C (second compound 1 µM, first compound 0.0949 µM): 17.1% | viability, T/C (second compound 1 µM, first compound 0.3 µM): 15.5% | viability, T/C (second compound 1 µM, first compound 0.949 µM): 14.3% | viability, T/C (second compound 1 µM, first compound 3 µM): 16.9% | viability, T/C (second compound 3.16 µM, first compound 0.00949 µM): 40.9% | viability, T/C (second compound 3.16 µM, first compound 0.03 µM): 18.5% | viability, T/C (second compound 3.16 µM, first compound 0.0949 µM): 16.3% | viability, T/C (second compound 3.16 µM, first compound 0.3 µM): 13.8% | viability, T/C (second compound 3.16 µM, first compound 0.949 µM): 18.4% | viability, T/C (second compound 3.16 µM, first compound 3 µM): 19.4% | viability, T/C (second compound 10 µM, first compound 0.00949 µM): 47.3% | viability, T/C (second compound 10 µM, first compound 0.03 µM): 18.7% | viability, T/C (second compound 10 µM, first compound 0.0949 µM): 16.7% | viability, T/C (second compound 10 µM, first compound 0.3 µM): 15.5% | viability, T/C (second compound 10 µM, first compound 0.949 µM): 15.8% | viability, T/C (second compound 10 µM, first compound 3 µM): 17.5%
